Values joined by “and” are separate entries in the source; they are usually repeats but may differ in a detail not shown here. Equal entries are not always repeated. Inconclusive results and toxic doses are left out. Rule as the data show it: active = T/C of 150% or more; inactive = T/C below 125%.
Test system: L1210 leukemia ip in BDF1 mice, survival T/C
Test: NCI In Vivo Anticancer Drug Screen. Data for tumor model L1210 Leukemia (intraperitoneal) in B6D2F1 (BDF1) mice
Conditions: endpoint: mean survival time, higher = longer survival
Method in brief: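 Tumor was transplanted into mice, which were then dosed with test compound or vehicle alone. Survival was recorded for each group, and the treated figure was expressed relative to the control figure.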

[1] = dose: 100.0 mg/kg/injection, schedule: Q01DX009 (ip), vehicle: saline
[2] = dose: 200.0 mg/kg/injection, schedule: Q01DX009 (ip), vehicle: saline
[3] = dose: 100.0 mg/kg/injection, schedule: Q01DX001 (ip), vehicle: carboxymethylcellulose (CMC)
[4] = dose: 200.0 mg/kg/injection, schedule: Q01DX001 (ip), vehicle: carboxymethylcellulose (CMC)
[5] = dose: 400.0 mg/kg/injection, schedule: Q01DX001 (ip), vehicle: carboxymethylcellulose (CMC)
[6] = dose: 100.0 mg/kg/injection, schedule: Q01DX001 (ip), vehicle: other
[7] = dose: 200.0 mg/kg/injection, schedule: Q01DX001 (ip), vehicle: other
[8] = dose: 100.0 mg/kg/injection, schedule: Q01DX009 (ip), vehicle: saline with Tween-80
[9] = dose: 100.0 mg/kg/injection, schedule: Q04DX003 (ip), vehicle: saline with Tween-80
[10] = dose: 200.0 mg/kg/injection, schedule: Q01DX009 (ip), vehicle: saline with Tween-80
[11] = dose: 200.0 mg/kg/injection, schedule: Q04DX003 (ip), vehicle: saline with Tween-80
[12] = dose: 400.0 mg/kg/injection, schedule: Q01DX009 (ip), vehicle: saline with Tween-80
[13] = dose: 400.0 mg/kg/injection, schedule: Q04DX003 (ip), vehicle: saline with Tween-80
[14] = dose: 100.0 mg/kg/injection, schedule: Q01DX001 (ip), vehicle: saline
[15] = dose: 200.0 mg/kg/injection, schedule: Q01DX001 (ip), vehicle: saline
[16] = dose: 400.0 mg/kg/injection, schedule: Q01DX001 (ip), vehicle: saline

Measured: T/C

O=C1Nc2ccccc2C1=O
inactive: dose: 50.0 mg/kg/injection, schedule: Q01DX009 (ip), vehicle: saline 92 % of control | [1] 103 % of control | dose: 100.0 mg/kg/injection, schedule: Q04DX003 (ip), vehicle: saline 99 % of control | [2] 103 % of control | dose: 200.0 mg/kg/injection, schedule: Q04DX003 (ip), vehicle: saline 99 % of control | dose: 400.0 mg/kg/injection, schedule: Q01DX009 (ip), vehicle: saline 96 % of control | dose: 400.0 mg/kg/injection, schedule: Q04DX003 (ip), vehicle: saline 99 % of control

CCC/C(=N/OC(=O)N(C)C)c1ccccc1
inactive: [3] 97 % of control | [4] 98 % of control | [5] 101 % of control

CC1=C2[C@H]3OC(=O)[C@H](C)[C@@H]3CC[C@@]2(C)C=CC1=O
inactive: [6] 103 % of control | [7] 95 % of control

O=[N+]([O-])c1ccc(OCc2ccc(S(=O)(=O)F)cc2Cl)c(Cl)c1
inactive: dose: 100.0 mg/kg/injection, schedule: Q04DX003 (ip), vehicle: gum acacia 98 % of control | dose: 200.0 mg/kg/injection, schedule: Q04DX003 (ip), vehicle: gum acacia 95 % of control | dose: 400.0 mg/kg/injection, schedule: Q04DX003 (ip), vehicle: gum acacia 97 % of control

COc1ccc2c(c1)C1(C(=O)O)CC=CCC1(C(=O)O)C2 (stereo not drawn)
inactive: dose: 75.0 mg/kg/injection, schedule: Q01DX001 (ip), vehicle: saline 98 % of control | dose: 150.0 mg/kg/injection, schedule: Q01DX001 (ip), vehicle: saline 98 % of control | dose: 300.0 mg/kg/injection, schedule: Q01DX001 (ip), vehicle: saline 96 % of control

Nc1ccc2c(c1)C(=O)c1cc([N+](=O)[O-])ccc1-2
inactive: dose: 25.0 mg/kg/injection, schedule: Q01DX001 (ip), vehicle: Klucel (hydroxypropylcellulose) (HPC) 97 % of control | dose: 50.0 mg/kg/injection, schedule: Q01DX001 (ip), vehicle: Klucel (hydroxypropylcellulose) (HPC) 90 % of control | dose: 100.0 mg/kg/injection, schedule: Q01DX001 (ip), vehicle: Klucel (hydroxypropylcellulose) (HPC) 94 % of control

CCOc1c(Br)cc(Br)cc1C=O
inactive: [8] 97 % of control | [9] 103 % of control | [10] 94 % of control | [11] 109 % of control | [12] 110 % of control | [13] 103 % of control

O=C(O)c1c(Cl)c(Cl)c(Cl)c(Cl)c1Cl
inactive: [8] 103 % of control | [10] 106 % of control | [12] 112 % of control

Oc1ccccc1-c1nnco1
inactive: dose: 50.0 mg/kg/injection, schedule: Q01DX001 (ip), vehicle: carboxymethylcellulose (CMC) 94 % of control | [3] 92 % of control | [4] 94 % of control | [5] 94 % of control

COC1=CC(=O)CC(C)C12Oc1c(Cl)c(OC)cc(OC)c1C2=O (stereo not drawn)
inactive: dose: 5.0 mg/kg/injection, schedule: Q## X008 (ip), vehicle: other 103 % of control | dose: 10.0 mg/kg/injection, schedule: Q## X008 (ip), vehicle: other 91 % of control | dose: 20.0 mg/kg/injection, schedule: Q## X008 (ip), vehicle: other 94 % of control | dose: 40.0 mg/kg/injection, schedule: Q## X008 (ip), vehicle: other 91 % of control | dose: 50.0 mg/kg/injection, schedule: Q## X024 (ip), vehicle: other 111 % of control | dose: 80.0 mg/kg/injection, schedule: Q## X008 (ip), vehicle: other 88 % of control | dose: 100.0 mg/kg/injection, schedule: Q## X024 (ip), vehicle: other 100 % of control | dose: 200.0 mg/kg/injection, schedule: Q## X024 (ip), vehicle: other 100 % of control | dose: 400.0 mg/kg/injection, schedule: Q## X024 (ip), vehicle: other 95 % of control | dose: 800.0 mg/kg/injection, schedule: Q## X024 (ip), vehicle: other 100 % of control

C=C(C)C#CC(O)(C(=O)OCC)C1CCCCC1 (stereo not drawn)
inactive: [6] 98 % of control | [7] 109 % of control | dose: 400.0 mg/kg/injection, schedule: Q01DX001 (ip), vehicle: other 102 % of control

CCOC(=O)CCC(N)C(=O)OCC (stereo not drawn)
inactive: [14] 95 % of control and 91 % of control | [1] 96 % of control | [15] 91 % of control | [2] 88 % of control | [16] 98 % of control and 86 % of control

CC(=O)OC1CCC2(C)C3=C(CCC2C1(C)C)C1(C)CCC(C(C)CCC=C(C)C)C1(C)CC3 (stereo not drawn)
inactive: dose: 50.0 mg/kg/injection, schedule: Q01DX009 (ip), vehicle: Klucel (hydroxypropylcellulose) (HPC) 102 % of control | dose: 100.0 mg/kg/injection, schedule: Q01DX009 (ip), vehicle: Klucel (hydroxypropylcellulose) (HPC) 94 % of control

O=C(O)C(SCc1ccccc1)c1ccccc1 (stereo not drawn)
inactive: [14] 91 % of control | [9] 95 % of control | [15] 98 % of control | [11] 95 % of control | [16] 92 % of control | [13] 101 % of control

CCC(C)[P+](c1ccccc1)(c1ccccc1)c1ccccc1 (stereo not drawn)
inactive: dose: 3.75 mg/kg/injection, schedule: Q01DX001 (ip), vehicle: carboxymethylcellulose (CMC) 118 % of control | dose: 7.0 mg/kg/injection, schedule: Q01DX015 (ip), vehicle: carboxymethylcellulose (CMC) 118 % of control | dose: 7.5 mg/kg/injection, schedule: Q01DX001 (ip), vehicle: carboxymethylcellulose (CMC) 118 % of control | dose: 12.5 mg/kg/injection, schedule: Q04DX002 (ip), vehicle: Klucel (hydroxypropylcellulose) (HPC) 109 % of control | dose: 14.0 mg/kg/injection, schedule: Q01DX015 (ip), vehicle: carboxymethylcellulose (CMC) 120 % of control | dose: 15.0 mg/kg/injection, schedule: Q01DX001 (ip), vehicle: carboxymethylcellulose (CMC) 119 % of control | dose: 25.0 mg/kg/injection, schedule: Q04DX002 (ip), vehicle: Klucel (hydroxypropylcellulose) (HPC) 91 % of control

c1cc2ccsc2cn1
inactive: dose: 12.5 mg/kg/injection, schedule: Q01DX009 (ip), vehicle: saline with Tween-80 104 % of control | dose: 12.5 mg/kg/injection, schedule: Q04DX003 (ip), vehicle: saline with Tween-80 110 % of control | dose: 25.0 mg/kg/injection, schedule: Q01DX009 (ip), vehicle: saline with Tween-80 103 % of control | dose: 25.0 mg/kg/injection, schedule: Q04DX003 (ip), vehicle: saline with Tween-80 104 % of control | dose: 50.0 mg/kg/injection, schedule: Q01DX009 (ip), vehicle: saline with Tween-80 102 % of control | dose: 50.0 mg/kg/injection, schedule: Q04DX003 (ip), vehicle: saline with Tween-80 103 % of control

CCOC(=O)C1(C(=O)OCC)C(C)CC(=O)N1c1ccccc1OC (stereo not drawn)
inactive: dose: 100.0 mg/kg/injection, schedule: Q04DX002 (ip), vehicle: Klucel (hydroxypropylcellulose) (HPC) 106 % of control | dose: 200.0 mg/kg/injection, schedule: Q04DX002 (ip), vehicle: Klucel (hydroxypropylcellulose) (HPC) 103 % of control | dose: 400.0 mg/kg/injection, schedule: Q04DX002 (ip), vehicle: Klucel (hydroxypropylcellulose) (HPC) 97 % of control

c1ccc(CSc2ncnc3nc[nH]c23)nc1
inactive: dose: 50.0 mg/kg/injection, schedule: Q04DX003 (ip), vehicle: saline sonified 116 % of control | dose: 100.0 mg/kg/injection, schedule: Q04DX003 (ip), vehicle: saline sonified 113 % of control

Reference: PubChem BioAssay AID248 (DTP/NCI, 2004)
